Test results taken from ChEMBL document CHEMBL1159256, “Acetylcholinesterase inhibition by territrem B derivatives” (J Nat Prod, 1995).
Calls of active or inactive are those of the source. The calls are words filed in the database; no cut-off is given here.

Key:
Acetylcholinesterase = Acetylcholinesterase (Electrophorus electricus, UniProt O42275); assay: (§1) Inhibition of electric eel AChE by Ellman's method; settings: read-out: I50
[1] = target: Acetylcholinesterase (Electrophorus electricus) (UniProt O42275); assay: as §1
Acetylcholinesterase (Electrophorus electricus), sequence (O42275 24-633 limits assumed): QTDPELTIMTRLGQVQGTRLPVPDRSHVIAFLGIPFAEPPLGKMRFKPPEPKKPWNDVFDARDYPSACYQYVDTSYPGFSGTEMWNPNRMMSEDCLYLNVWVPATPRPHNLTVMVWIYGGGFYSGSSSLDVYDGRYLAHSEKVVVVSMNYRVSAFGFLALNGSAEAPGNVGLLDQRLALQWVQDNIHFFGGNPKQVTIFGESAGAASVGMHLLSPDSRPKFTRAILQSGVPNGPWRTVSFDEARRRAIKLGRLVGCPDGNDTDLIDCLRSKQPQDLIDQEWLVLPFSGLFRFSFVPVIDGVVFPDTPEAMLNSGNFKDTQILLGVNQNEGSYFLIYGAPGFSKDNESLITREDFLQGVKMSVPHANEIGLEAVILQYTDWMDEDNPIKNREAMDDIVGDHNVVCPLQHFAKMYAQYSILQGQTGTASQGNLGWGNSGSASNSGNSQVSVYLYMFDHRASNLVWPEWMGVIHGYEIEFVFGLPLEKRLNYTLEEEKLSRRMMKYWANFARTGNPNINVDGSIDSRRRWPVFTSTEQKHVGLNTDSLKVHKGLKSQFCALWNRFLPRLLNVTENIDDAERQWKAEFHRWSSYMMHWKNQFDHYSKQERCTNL

Acetylcholinesterase, sequence (O42275 whole entry): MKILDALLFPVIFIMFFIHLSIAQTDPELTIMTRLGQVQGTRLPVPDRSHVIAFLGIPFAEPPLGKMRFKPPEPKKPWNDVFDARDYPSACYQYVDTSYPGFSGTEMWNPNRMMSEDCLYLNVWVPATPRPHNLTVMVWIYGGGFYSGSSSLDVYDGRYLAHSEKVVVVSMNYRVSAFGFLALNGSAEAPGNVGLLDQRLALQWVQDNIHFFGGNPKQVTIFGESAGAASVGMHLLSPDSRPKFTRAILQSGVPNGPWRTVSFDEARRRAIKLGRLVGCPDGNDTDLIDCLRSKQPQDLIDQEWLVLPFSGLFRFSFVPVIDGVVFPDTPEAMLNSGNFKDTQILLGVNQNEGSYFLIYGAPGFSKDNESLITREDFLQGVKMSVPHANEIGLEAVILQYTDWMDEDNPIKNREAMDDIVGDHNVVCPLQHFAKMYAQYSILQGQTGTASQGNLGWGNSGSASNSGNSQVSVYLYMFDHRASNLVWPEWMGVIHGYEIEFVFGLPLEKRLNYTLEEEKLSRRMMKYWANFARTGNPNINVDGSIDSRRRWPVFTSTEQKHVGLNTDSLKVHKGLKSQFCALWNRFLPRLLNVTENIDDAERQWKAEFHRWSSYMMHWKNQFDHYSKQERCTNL

| Structure (SMILES) | IC50 (Acetylcholinesterase) [nM] | Activity [1] | inhibition ([1]; concentration not given here) [%] |
| --- | --- | --- | --- |
| COc1cc(-c2cc3c(c(=O)o2)C[C@]2(O)[C@@]4(C)C(=O)CCC(C)(C)[C@]4(O)CC[C@@]2(C)O3)cc(OC)c1OC [2,3-DIHYDROTERRITREM B] | 2200 |  |  |
| COc1cc(CCC2=C(C(=O)O)C[C@]3(O)[C@@]4(C)C(=O)CCC(C)(C)[C@]4(O)CC[C@@]3(C)O2)cc(OC)c1OC |  | inactive |  |
| COc1cc(-c2cc3c(c(=O)o2)C[C@]2(O)[C@@]4(C)C(=O)[C@H]5O[C@H]5C(C)(C)[C@]4(O)CC[C@@]2(C)O3)cc(OC)c1OC [2,3-EPOXYTERRITREM B] | 170 |  |  |
| COc1cc(-c2cc3c(c(=O)o2)C[C@]2(O)[C@@]4(C)[C@H](O)C=CC(C)(C)[C@]4(O)CC[C@@]2(C)O3)cc(OC)c1OC [1-DIHYDROTERRITREM B] | 79000 |  |  |
| COc1cc(-c2cc3c(c(=O)o2)C[C@]2(O)[C@@]4(C)C(=O)C=C[C@](C)(CI)[C@]4(O)CC[C@@]2(C)O3)cc(OC)c1OC [4BETA-IODOMETHYL-4BETA-DEMETHYL-TERRITREM B] | 290 |  |  |
| COc1cc(-c2cc3c(c(=O)o2)C[C@]2(O)[C@@]4(C)C(=O)C=CC(C)(C)[C@]4(O)CC[C@@]2(C)O3)cc(OC)c1OC [TERRITREM B] | 260 |  | 50 |
